Laboratory results reported in US20240068008A1, “RNase for Improved Microbial Detection and Antimicrobial Susceptibility Testing” (MicrobeDX Inc., priority 2016, published 2024).

Assays:
Escherichia coli = test: AST with and without RNase, rRNA levels relative to control at 60 or 90 minutes; format: cell-based; conditions: susceptible E. coli isolates, 60 or 90 minutes at 37° C., RNase added to the growth medium
Experimental: Similar results have been observed for other Gram-negative bacteria such as Kiebsiella pneumoniae, Proteus mirabilis, and Pseudomonas aeruginosa using the same conditions and RNase concentrations as for E. coli.
Susceptible (S) and resistant (R) E. coli isolates were incubated in growth medium with ampicillin for 60 or 90 minutes at 37° C. with (+) and without (−) RNase.
Susceptible (S) and resistant (R) E. coli isolates were incubated in growth medium with cefazolin for 60 or 90 minutes at 37° C. with (+) and without (−) 1 μg/ml RNase.
Susceptible (S) and resistant (R) E. coli isolates were incubated in growth medium with ceftriaxone for 60 or 90 minutes at 37° C. with (+) and without (−) RNase.

K. pneumoniae = test: as above; format: cell-based; conditions: susceptible K. pneumoniae isolates, 60 or 90 minutes at 37° C., RNase added to the growth medium
Experimental: Susceptible (S) and resistant (R) K. pneumoniae isolates were incubated in growth medium with cefepime for 60 or 90 minutes at 37° C. with (+) and without (−) 1 μg/ml RNase.
Susceptible (S) and resistant (R) K. pneumoniae isolates were incubated in growth medium with ceftriaxone for 60 or 90 minutes at 37° C. with (+) and without (−) RNase.

## CC1(C)S[C@@H]2[C@H](NC(=O)[C@H](N)c3ccccc3)C(=O)N2[C@H]1C(=O)O [ampicillin]
Escherichia coli
  rRNA levels relative to control (growth medium without antibiotic): significant reduction in rRNA

## Cc1nnc(SCC2=C(C(=O)O)N3C(=O)[C@@H](NC(=O)Cn4cnnn4)[C@H]3SC2)s1 [cefazolin]
Escherichia coli
  rRNA levels relative to control (growth medium without antibiotic): significant reduction in rRNA

## CO/N=C(\C(=O)N[C@@H]1C(=O)N2C(C(=O)[O-])=C(C[N+]3(C)CCCC3)CS[C@H]12)c1csc(N)n1 [cefepime]
K. pneumoniae
  rRNA levels relative to control (growth medium without antibiotic): significant reduction in rRNA

## CO/N=C(\C(=O)N[C@@H]1C(=O)N2C(C(=O)O)=C(CSc3nc(=O)c(=O)[nH]n3C)CS[C@H]12)c1csc(N)n1 [ceftriaxone]
Escherichia coli
  rRNA levels relative to control (growth medium without antibiotic): significant reduction in rRNA
K. pneumoniae
  rRNA levels relative to control (growth medium without antibiotic): significant reduction in rRNA
